Data published in the supplement of paper PMC10307832.

Key:
Experiment in all cases: relative viability (nuclei count vs DMSO), 5 days (fraction); higher = more cells survive
[1] = compound: O=C(Nc1cc(C(F)(F)F)cc(C(F)(F)F)c1)c1cc(Cl)ccc1O [IMD-0354] + C[C@@H](Oc1cc(-c2cnn(C3CCNCC3)c2)cnc1N)c1c(Cl)ccc(F)c1Cl [Crizotinib] (partner 1 µM)
Procedure, shortened: (§1)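 Lung cancer cell lines were seeded in 1536-well plates and dosed by pin tool the next day, with either a single drug or a fixed anchor-drug dose combined with five library-drug doses (not always all listed) spaced in √10 steps. Five days later, one step fixed the cells and stained their nuclei (final 0.05% Triton X-100, 1% formaldehyde, 1 ug/ml Hoechst), and nuclei were counted on 4× images. Relative viability is the nuclei count in treated wells divided by the count in vehicle wells, and each value is the median of duplicate plates.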

[2] = compound: O=C(Nc1cc(C(F)(F)F)cc(C(F)(F)F)c1)c1cc(Cl)ccc1O [IMD-0354] + CC1(C)CCC(c2ccc(Cl)cc2)=C(CN2CCN(c3ccc(C(=O)NS(=O)(=O)c4ccc(N[C@H](CCN5CCOCC5)CSc5ccccc5)c(S(=O)(=O)C(F)(F)F)c4)cc3)CC2)C1 [Navitoclax] (partner 0.5 µM)
Procedure, shortened: as §1

[3] = compound: Cc1cnc(CNC(=O)c2c(=O)c3ccc(N4CCCN(C)CC4)nc3n3c2sc2ccccc23)cn1 [CX-5461] + Cc1cc(Nc2cc(N3CCN(C)CC3)nc(Sc3ccc(NC(=O)C4CC4)cc3)n2)n[nH]1 [Tozasertib] (partner 0.1 µM)
Procedure, shortened: as §1

[4] = compound: O=C(Nc1cc(C(F)(F)F)cc(C(F)(F)F)c1)c1cc(Cl)ccc1O [IMD-0354] + Nc1nc2[nH]cc(CCc3ccc(C(=O)N[C@@H](CCC(=O)O)C(=O)O)cc3)c2c(=O)[nH]1 [Pemetrexed] (partner 0.2 µM)
Procedure, shortened: as §1

Cell Line	relative viability ([1]; first compound 0.04 µM)	relative viability ([1]; first compound 0.1265 µM)	relative viability ([1]; first compound 0.4 µM)	relative viability ([1]; first compound 1.265 µM)	relative viability ([1]; first compound 4 µM)	relative viability ([2]; first compound 0.04 µM)	relative viability ([2]; first compound 0.1265 µM)	relative viability ([2]; first compound 0.4 µM)	relative viability ([2]; first compound 1.265 µM)	relative viability ([2]; first compound 4 µM)	relative viability ([3]; first compound 0.01 µM)	relative viability ([3]; first compound 0.03162 µM)	relative viability ([3]; first compound 0.1 µM)	relative viability ([3]; first compound 1 µM)	relative viability ([4]; first compound 0.04 µM)	relative viability ([4]; first compound 0.1265 µM)	relative viability ([4]; first compound 0.4 µM)	relative viability ([4]; first compound 1.265 µM)	relative viability ([4]; first compound 4 µM)	relative viability ([3]; first compound 0.3162 µM)
A-427	0.877	0.793	0.519	0.185	0.139	0.989	0.983	0.654	0.546	0.115	0.195	0.247	0.212	0.212	1.08	0.982	0.531	0.157	0.169	
LCLC-97TM1		0.432	0.211	0.265	0.146		0.331	0.368	0.322	0.205	0.269	0.26	0.218	0.208	0.202	0.162	0.102	0.0974	0.0756	
PC-3 [JPC-3]	1.08	1.01	0.601	0.419	0.18	0.712	0.823	0.638	0.527	0.264	0.899	0.947	0.851	0.847	1.42	1	1.03	0.305	0.405	0.792
BEN	0.856	0.8	0.463	0.366	0.299	0.0569	0.0541	0.0659	0.0403	0.0444	0.481	0.529	0.499	0.498	0.815	0.758	0.506	0.373	0.322	0.495
NCI-H1666	0.867	1.02	0.94	0.251	0.151	1.09	0.932	0.83	0.153	0.174	0.629	0.609	0.488	0.406	0.905	1	0.708	0.832	0.824	0.534
LC-2-ad	0.431	0.466	0.37	0.358	0.239	0.408	0.395	0.199	0.0893	0.105	0.377	0.446	0.469	0.364	0.29	0.268	0.276	0.189	0.145	0.411
SW 1573	0.819	0.763	0.408	0.268	0.115	1.15	0.948	0.421	0.571	0.102	0.183	0.161	0.147	0.166	0.872	0.799	0.271	0.131	0.0794	0.172
ChaGo-K-1	1.16	1.26	0.788	0.398	0.433	1.43	1.48	0.672	0.296	0.327	0.185	0.227	0.247	0.232	0.26	0.259	0.269	0.23	0.208	0.229
COR-L 105	0.856	0.906	0.538	0.55	0.261	0.731	0.684	0.644	0.374	0.269	0.342	0.339	0.4	0.306	1.14	1.23	0.802	0.699	0.402	0.371
NCI-H1975	1.15	0.959	0.546	0.211	0.192	1.28	1.19	0.528	0.44	0.184	0.744	0.815	0.577	0.211	0.292	0.311	0.234	0.175	0.157	0.744
NCI-H1993	0.907	0.824	0.658	0.508	0.557	0.975	0.792	0.722	0.552	0.576	0.614	0.585	0.566	0.556	0.578	0.565	0.518	0.344	0.412	0.599
RERF-LC-KJ	0.861	0.893	0.495	0.311	0.196	0.843	1.1	0.496	0.109	0.228	0.449	0.516	0.287	0.245	0.536	0.462	0.376	0.126	0.153	0.509
NCI-H23	0.719	0.522	0.376	0.378	0.264	0.893	0.814	0.54	0.394	0.207	0.311	0.429	0.334	0.568	0.78	0.693	0.324	0.18	0.235	0.362
HCC-366	0.586	0.858	0.225	0.105	0.0509	1.03	1.17	0.235	0.27	0.0258	0.0846	0.0825	0.0964	0.0753	0.18	0.181	0.0918	0.0649	0.0246	0.116
EMC-BAC-2	0.869	0.677	0.586	0.415	0.27	1.2	1.17	0.617	0.977	0.219	0.275	0.314	0.247	0.244	0.398	0.399	0.338	0.319	0.306	0.252
NCI-H2405	0.915	0.86	0.491	0.572	0.304	1.08	0.952	0.612	0.174	0.113	0.746	0.882	0.702	0.544	1.16	0.965	0.49	0.271	0.277	0.549
